Data from PubChem BioAssay AID248 (DTP/NCI, 2004).
Inconclusive results and toxic doses are left out. Rule as the data show it: active = T/C of 150% or more; inactive = T/C below 125%.

System: L1210 leukemia ip in BDF1 mice, survival T/C
Assay: NCI In Vivo Anticancer Drug Screen. Data for tumor model L1210 Leukemia (intraperitoneal) in B6D2F1 (BDF1) mice
Conditions: endpoint: mean survival time, higher = longer survival
Summary of the method: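 Read-out is survival time, reported as the treated-group measurement over the vehicle-control measurement.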

Measured: T/C

CCOC(=O)/C=C/c1ccc([N+](=O)[O-])cc1
inactive: dose: 100.0 mg/kg/injection, schedule: Q04DX003 (ip), vehicle: Klucel (hydroxypropylcellulose) (HPC) 95 % of control | dose: 200.0 mg/kg/injection, schedule: Q04DX003 (ip), vehicle: Klucel (hydroxypropylcellulose) (HPC) 102 % of control | dose: 400.0 mg/kg/injection, schedule: Q04DX003 (ip), vehicle: Klucel (hydroxypropylcellulose) (HPC) 98 % of control

Cc1ccc(NC(=O)Nc2ccccc2F)cc1NC(=O)Nc1ccccc1F
inactive: dose: 100.0 mg/kg/injection, schedule: Q01DX009 (ip), vehicle: saline with Tween-80 93 % of control | dose: 200.0 mg/kg/injection, schedule: Q01DX009 (ip), vehicle: saline with Tween-80 88 % of control | dose: 400.0 mg/kg/injection, schedule: Q01DX009 (ip), vehicle: saline with Tween-80 94 % of control

CN(C)S(=O)(=O)c1ccc(NC(=O)OC2CCCC2)cc1
inactive: dose: 100.0 mg/kg/injection, schedule: Q01DX001 (ip), vehicle: carboxymethylcellulose (CMC) 93 % of control | dose: 200.0 mg/kg/injection, schedule: Q01DX001 (ip), vehicle: carboxymethylcellulose (CMC) 98 % of control | dose: 400.0 mg/kg/injection, schedule: Q01DX001 (ip), vehicle: carboxymethylcellulose (CMC) 98 % of control
